As usually defined, the pEC50 is the EC50 on a negative log10 scale, so that one unit is a factor of ten.

For one series, the system named is PtdIns-3,4,5-P3. Nature of the series: Endogenous PtdIns-3,4,5-P3 levels in non-transfected human endothelial cells. The class given is cell-based. The conditions noted are these: E2 10 nM, insulin 100 nM.
Series [1] in a line: Serum E2 level in mice implanted with E2 tablets. Particulars: mice implanted s.c. with 1.5 mg slow-release E2 tablets, 3-5 days. The class given is in vivo, mouse.
The subject of a further series is PI3K. Nature of the series: p-Tyr- and IRS-1-associated PI3K activity (immunoprecipitate). The conditions noted are these: p-Tyr and IRS-1 immunoprecipitate. The class given is cell-based, human.
The subject of series [2] is eNOS. Nature of the series: eNOS activity assay (conversion of [3H]-arginine to [3H]-citrulline) in treated human endothelial cells. The class given is cell-based. The conditions noted are these: for time after stimulation at which PI3-kinase/eNOS activity is stimulated / effect on E2-stimulated eNOS activity, later phase (≥15 min) or 30 min: E2 10 nM; for time after stimulation at which PI3-kinase/eNOS activity is stimulated / stimulation of eNOS activity by the substance alone: insulin 100 nM; for stimulation of eNOS activity by the substance alone: E2/αE2 10 nM; for effect on E2-stimulated eNOS activity, later phase (≥15 min) or 30 min: wortmannin 30 nM, ICI 10 μM, genistein 50 μM, PD98059 5 μM, actinomycin D 2 h pretreatment; for effect on basal eNOS activity, substance alone: no E2. Here is the method:
Fetal bovine serum was deprived of estrogen by charcoal-stripping. Once grown to confluence the cells were replated on 1.5% gelatin-coated flasks at 20000 cells/cm^2. […] Cell number was assessed by direct cell counting of adherent cells, after trypsin detachment, in a Neubauer hemocytometer (VWR Scientifics). The percentage of cells excluding Trypan Blue after staining with the compound was taken as a measure of cell viability.
Endothelial cells were grown to confluence on 55 cm^2 culture dishes, treated according to the indicated conditions, and harvested in ice-cold PBS containing 1 mM EDTA. The cell lysates were pelleted in a microfuge (2 minutes, 13000 rpm, 4° C.) and subsequently homogenized in a buffer containing 25 mM Tris-HCl, pH 7.4, 1 mM EDTA, 1 mM EGTA. eNOS activity was determined by measuring the conversion of [^3H]-arginine to [^3H]-citrulline. Rat cerebellum extracts, containing elevated amounts of neuronal NOS, were used as positive controls, while endothelial cell extracts incubated in the presence of the competitive eNOS inhibitor L-NAME (1 mM) served as negative controls.
Human and bovine aortic endothelial cells were harvested enzymatically with Type IA collagenase (1 mg/mL).

In series [3] the target is T1, eNOS (Mus musculus, UniProt P70313).
T1 construct: from tissue; host or cells: cremaster muscle of male C57BL/6 mice
The series can be described thus: Cremaster eNOS activity in mice. The conditions noted are these: mice with 1.5 mg slow-release E2 tablets s.c. The class given is in vivo. Here is the method: (§1) Mice were anesthetized and the cremaster muscle was studied under intravital microscopy^28. Ischemia was induced by applying pressure to supplying arteries just sufficient to stop blood flow for 30 min. In some experiments, wortmannin (100 nM) or L-NAME (0.1 mM) was applied to the cremaster muscle during the ischemic period. The pressure was released for reperfusion, and the same vessels were recorded in each animal before and after I/R. The rolling velocities of 25 leukocytes were measured in each venule; sorted and averaged for each rank to construct cumulative histograms. The velocities of 3,750 leukocytes were measured in 150 venules before and after I/R. The number of firmly adherent leukocytes was measured before and after I/R in the same 200 μm long segments of venules. The following number of venules were studies for leukocyte adhesion: Untreated, 15 venules; E2-treated, 20 venules; E2-treated with wortmannin, 25 venules; E2-treated with L-NAME, 15 venules. Cremaster eNOS activity was measured in 3 untreated, 4 E2-treated, 5 E2-treated with wortmannin, and 4 E2-treated with L-NAME mice.

The subject of a further series is Akt/PKB. The series can be described thus: Immunoblotting of Akt phosphorylation (Thr 308, Ser 473). In kind it is cell-based, human. Here is the method:
(§2) After the different treatments, serum-starved endothelial cells were rinsed once with ice-cold PBS before addition of the lysis buffer (100 mM Tris-HCl, pH 6.8, 4% SDS, 20% glycerol, 1 mM sodium orthovanadate, 1 mM NaF, and 1 mM phenylmethylsulfonylfluoride) to the dishes on an ice tray. The cell lysates were scraped, boiled, and centrifuged for 2 min at 13000 rpm. Total cell lysates (40 μg of protein) and low range molecular weight markers (BIO-RAD, Hercules, Calif.) were separated by SDS-polyacrylamide gel electrophoresis (12% running, 4% stacking), electrophoretically transferred to polyvinylidene fluoride membranes (Immobilon P, 0.45 μm pore size) and incubated overnight at 4° C. with blocking solution (5% skim milk in TBS—0.1% Tween 20). Affinity-purified rabbit antibodies (0.4 μg of IgG/ml) vs. Akt, (Ser 473) phospho-Akt or (Thr 308) phospho-Akt (New England BioLabs, Beverly, Mass.), Erk1/2, (Tyr 204) phospho-Erk-1/-2 (Calbiochem, San Diego, Calif.) were incubated with the membranes overnight at 4° C. in TBS—0.1% Tween 20 containing 5% BSA. The blots were washed three times with TBS—0.1% Tween 20 and then treated with donkey anti-rabbit antibody (1:4000 dilution) coupled to horseradish peroxidase. Immunodetection was accomplished using the enhanced chemoluminescence kit (ECL Kit, Amersham Corp.).

Series [4] deals with eNOS. The series can be described thus: E2-stimulated eNOS activity in transfected murine fibroblasts. Particulars: murine fibroblasts transfected with ERα and eNOS cDNAs.
The subject of series [5] is mouse cremaster muscle venules. The series can be described thus: Model of vascular injury: ischemia and reperfusion in the mouse cremaster muscle (leukocyte rolling and adhesion). In kind it is in vivo. Particulars: mice with 1.5 mg slow-release E2 tablets s.c. On the procedure: as §1, with “venules.” for “venules. The following number of venules were studies for leukocyte adhesion: Untreated, 15 venules; E2-treated, 20 venules; E2-treated with wortmannin, 25 venules; E2-treated with L-NAME, 15 venules. Cremaster eNOS activity was measured in 3 untreated, 4 E2-treated, 5 E2-treated with wortmannin, and 4 E2-treated with L-NAME mice.”

Another series concerns ERK 1 and 2. Nature of the series: Immunoblotting of ERK 1/2 phosphorylation. The class given is cell-based, human. The conditions noted are these: E2 10 nM, from 2 minutes. Here is the method: as §2
The mark [6] stands for this setting: E2/αE2 10 nM, insulin 100 nM, 20 min.

pEC50: −log10 of the molar value. Several values for one entry are separate records, joined by “and”; a condition that tells them apart may be missing. Equal values may be shown once. Entries after “also recorded” stand apart in the source; their conditions may differ. Bounds are passed on as bounds.

T1 sequence (P70313 2-1202): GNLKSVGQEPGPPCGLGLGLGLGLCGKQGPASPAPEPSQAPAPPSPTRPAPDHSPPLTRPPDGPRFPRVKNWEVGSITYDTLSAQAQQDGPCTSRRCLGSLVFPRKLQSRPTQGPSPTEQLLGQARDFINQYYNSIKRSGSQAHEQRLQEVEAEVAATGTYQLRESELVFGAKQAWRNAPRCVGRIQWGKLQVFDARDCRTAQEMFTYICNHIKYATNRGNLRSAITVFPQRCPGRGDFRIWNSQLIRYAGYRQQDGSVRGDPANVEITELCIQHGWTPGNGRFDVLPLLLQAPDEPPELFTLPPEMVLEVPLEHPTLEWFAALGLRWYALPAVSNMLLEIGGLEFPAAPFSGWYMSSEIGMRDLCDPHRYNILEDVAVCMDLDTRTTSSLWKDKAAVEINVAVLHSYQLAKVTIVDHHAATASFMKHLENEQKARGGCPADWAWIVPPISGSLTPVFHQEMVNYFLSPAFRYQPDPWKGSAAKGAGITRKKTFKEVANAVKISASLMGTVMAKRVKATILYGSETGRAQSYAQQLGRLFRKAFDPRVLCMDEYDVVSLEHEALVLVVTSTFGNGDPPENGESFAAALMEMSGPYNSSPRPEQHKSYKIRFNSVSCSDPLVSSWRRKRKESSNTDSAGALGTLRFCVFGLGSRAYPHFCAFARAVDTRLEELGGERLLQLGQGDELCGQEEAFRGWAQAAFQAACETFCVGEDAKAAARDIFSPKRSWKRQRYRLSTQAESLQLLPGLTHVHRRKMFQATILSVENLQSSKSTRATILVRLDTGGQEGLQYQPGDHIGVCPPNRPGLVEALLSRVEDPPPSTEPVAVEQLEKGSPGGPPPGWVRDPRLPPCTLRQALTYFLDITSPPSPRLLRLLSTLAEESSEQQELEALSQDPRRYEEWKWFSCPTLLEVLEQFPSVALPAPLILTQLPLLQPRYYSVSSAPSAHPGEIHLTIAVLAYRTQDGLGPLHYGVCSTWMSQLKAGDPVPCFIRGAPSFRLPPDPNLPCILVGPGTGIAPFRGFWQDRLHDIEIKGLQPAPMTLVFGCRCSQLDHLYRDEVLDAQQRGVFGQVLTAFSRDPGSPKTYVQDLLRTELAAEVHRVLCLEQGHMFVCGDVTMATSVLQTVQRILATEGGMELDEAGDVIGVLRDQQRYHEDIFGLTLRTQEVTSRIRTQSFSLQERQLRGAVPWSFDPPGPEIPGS

17β-estradiol [E2]: the “endogenous PtdIns-3,4,5-P3 levels” value in the series with PtdIns-3,4,5-P3 was “increased”. In addition, the “serum E2 level” value in series [1] is 760 ± 30 pg/mL. Also, in the series with PI3K, the “p-Tyr- or IRS-1-associated PI3K activity” value was “did not increase”. The “lowest concentration increasing eNOS activity” value in the series with eNOS [2] (30 min treatment of HSVEC) is recorded as 10 pM. In addition, the pEC50 in the series on eNOS [2] (E2 10 pM-1 μM, 30 min, human endothelial cells, read-out: EC50 value for increase in eNOS activity) is ~10.00 and 10.00. Further, the “time after stimulation at which PI3-kinase/eNOS activity is stimulated” value in the series with eNOS [2] is on record as greater than 15 min. In the series with eNOS [2] (30 min), the “stimulation of eNOS activity by the substance alone” value was “increases eNOS activity; also recorded: biphasic increase in eNOS activity; also recorded: marked increase”. In the series with eNOS [2] (after stimulation), the “time of maximum effect on PI3-kinase and eNOS activity” value was in the range of 15 to 20 min. Moreover, at eNOS [3], the “increase in eNOS activity in cremaster muscle” value was found to be 3.2 fold. In the series with Akt/PKB (setting [6]), the “Akt Ser 473 phosphorylation” value is recorded as “hyperphosphorylated after 20 minutes” and the “Akt threonine (Thr 308) phosphorylation” value is given as “phosphorylated after 20 minutes; also recorded: increase in Akt phosphorylation”. Also, in the series on eNOS [4], the “increase in eNOS activity, wild-type fibroblasts” value turned out to be 8 fold. Also, in series [5], the “changes in leukocyte accumulation and rolling velocity following I/R” value is “prevented”. Moreover, the “phosphorylation of ERK 1 and 2” value with ERK 1 and 2 was “increased phosphorylation”.

As to `C[C@]12CC[C@@H]3c4ccc(O)cc4C[C@@H](CCCCCCCCC[S+]([O-])CCCC(F)(F)C(F)(F)F)[C@H]3[C@@H]1CC[C@@H]2O` (stereo partly shown) [ICI 187,780], in the series with eNOS [2], the “effect on E2-stimulated eNOS activity, later phase (≥15 min) or 30 min” value is recorded as “complete blockade; also recorded: completely blocked” and the “effect on basal eNOS activity, substance alone” value is “neither wortmannin nor ICI 187,780 alone affected basal eNOS activity”. In the series with eNOS [2] (listed as ICI 182,780), the “effect on E2-stimulated eNOS activity, later phase (≥15 min) or 30 min” value is on record as “completely blocked” and the “effect on basal eNOS activity, substance alone” value was “did not produce any effect”. In the series with Akt/PKB (ICI 10 μM, wortmannin 30 nM), the “effect on E2-induced Akt Ser 473 phosphorylation” value is given as “not inhibited” and the “effect on E2-induced Akt Thr 308 phosphorylation” value is “blocked”.

Turning to “insulin: known activator of the PI3-kinase/Akt pathway”, the “endogenous PtdIns-3,4,5-P3 levels” value in the series on PtdIns-3,4,5-P3 is recorded as “rapidly increased”. In addition, the “p-Tyr- or IRS-1-associated PI3K activity” value in the series with PI3K was “increases”. In the series with eNOS [2], the “time after stimulation at which PI3-kinase/eNOS activity is stimulated” value is given as no more than 2 min. In addition, the “stimulation of eNOS activity by the substance alone” value with eNOS [2] (30 min) is “marked increase; also recorded: able to stimulate”; in the series on eNOS [2] (30 min, listed as Insulin) it was “activates eNOS activity”.

These data come from patent US6566081B1, “Methods of identifying a compound which modulates the non-transcriptional non-map-kinase induced effects of steroid hormones” (The Brigham and Women's Hospital, Inc., priority 1999, dated 2003).
